From US20070149508A1, “Six membered heteroaromatic inhibitors targeting resistant kinase mutations” (TargeGen, Inc., priority 2005, published 2007)
Counter-ions that a name gives are not always drawn.

Legend:
Abl (T315I) = biological target: T1, Abl (T315I) (Homo sapiens, UniProt P00519, T315I); test: Abl (T315I) Kinase Assay (KinaseGlo luminescent detection of residual ATP); assay type: biochemical; conditions: Abl (T315I) IC50 (nM), Abl (T315I) (Upstate, 17 ng/well), Abltide 100 uM, ATP 500 nM, 60 minutes at 37° C.
T1 construct: purchased Upstate
Experimental: The assay was performed similarly to the Abl kinase assay. Abl (T315I) (Upstate, 17 ng/well); Abltide substrate (100 uM) and ATP (500 nM) comprised the reaction mixture. Compound was similarly diluted, and the reaction plate was incubated for 60 minutes at 37° C.

Abl kinase = Abl kinase (Homo sapiens, UniProt P00519); test: biochemical; conditions: Abl IC50 (nM), Abl kinase (Invitrogen, 20 ng/well), Abltide 100 μM, ATP 500 nM, 37° C. for 60 minutes, top concentration 10 uM

Work on `Nc1nc2ccc(/C=C/c3cnc(Nc4ccc(OC5CCNCC5)cc4)nc3)cc2s1` [6-[(E)-2-(2-{[4-(piperidin-4-yloxy)phenyl]amino}pyrimidin-5-yl)vinyl]-1,3-benzothiazol-2-amine] yielded an IC50 (Abl (T315I)) of 428 nM and an IC50 (Abl kinase) of 259 nM.
`Nc1nc2ccc(/C=C/c3cnc(Nc4ccc(S(=O)(=O)C5CCNCC5)cc4)nc3)cc2s1` [6-[(E)-2-(2-{[4-(piperidin-4-ylsulfonyl)phenyl]amino}pyrimidin-5-yl)vinyl]-1,3-benzothiazol-2-amine trifluoroacetic acid salt] was tested, and the IC50 (Abl (T315I)) was 58 nM and the IC50 (Abl kinase) was 50 nM.
In the case of `Nc1nc2ccc(/C=C/c3cnc(Nc4ccc(S(=O)(=O)C5CCNCC5)cc4)nc3)cc2[nH]1` [6-[(E)-2-(2-{[4-(piperidin-4-ylsulfonyl)phenyl]amino}pyrimidin-5-yl)vinyl]-1H-benzimidazol-2-amine], the IC50 (Abl (T315I)) is reported as 169 nM and the IC50 (Abl kinase) is reported as 192 nM.
Work on `Nc1cn2cc(/C=C/c3cnc(Nc4ccc(S(=O)(=O)C5CCNCC5)cc4)nc3)ccc2n1` [6-[(E)-2-(2-{[4-(piperidin-4-ylsulfonyl)phenyl]amino}pyrimidin-5-yl)vinyl]imidazolo[1,2-a]pyridin-2-amine trifluoroacetic acid salt] yielded an IC50 (Abl (T315I)) of 136 nM and an IC50 (Abl kinase) of 469 nM.
`Nc1nc2ccc(/C=C/c3cnc(Nc4ccc(S(=O)(=O)CCCN5CCCC5)cc4)nc3)cc2s1` [6-{(E)-2-[2-({4-[(3-pyrrolidin-1-ylpropyl)sulfonyl]phenyl}amino)pyrimidin-5-yl]vinyl}-1,3-benzothiazol-2-amine trifluoroacetic acid salt] was tested, and the IC50 (Abl (T315I)) was 173 nM and the IC50 (Abl kinase) was 81 nM.
Compound `Nc1nc2ccc(/C=C/c3cnc(Nc4ccc(S(=O)(=O)N5CCC(N)CC5)cc4)nc3)cc2s1` [6-{(E)-2-[2-({4-[(4-aminopiperidin-1-yl)sulfonyl]phenyl}amino)pyrimidin-5-yl]vinyl}-1,3-benzothiazol-2-amine] has an IC50 (Abl (T315I)) of 21 nM and an IC50 (Abl kinase) of 42 nM.
`Nc1nc2cc(C(F)(F)F)cc(/C=C/c3cnc(Nc4ccc(S(=O)(=O)C5CCNCC5)cc4)nc3)c2[nH]1` [7-((E)-2-(2-(4-(piperidin-4-ylsulfonyl)phenylamino)pyrimidin-5-yl)vinyl)-5-(trifluoromethyl)-1H-benzo[d]imidazol-2-amine] gave an IC50 (Abl (T315I)) of 254 nM and an IC50 (Abl kinase) of 130 nM.
Work on `Nc1cccc(/C=C/c2cnc(Nc3ccc(S(=O)(=O)C4CCNCC4)cc3)nc2)c1` [15-(3-aminostyryl)-N-(4-(piperidin-4-ylsulfonyl)phenyl)pyrimidin-2-amine Hydrochloride] yielded an IC50 (Abl (T315I)) of 561 nM and an IC50 (Abl kinase) of 31 nM.
In the case of `Nc1nc2ccc(/C=C/c3cnc(Nc4ccc(S(=O)(=O)N5CCNCC5CO)cc4)nc3)cc2s1` (centres unmarked) [(1-{[4-({5-[(E)-2-(2-amino-1,3-benzothiazol-6-yl)vinyl]pyrimidin-2-yl}amino)phenyl]sulfonyl}piperazin-2-yl)methanol], the IC50 (Abl (T315I)) is reported as 115 nM and the IC50 (Abl kinase) is reported as 119 nM.
`Nc1nc2ccc(/C=C/c3cnc(Nc4ccc(S(=O)(=O)N5CCC(CO)CC5)cc4)nc3)cc2s1` [(1-{[4-({5-[(E)-2-(2-amino-yl)vinyl]pyrimidin-2-amino)phenyl]sulfonyl}piperidin-4-yl)methanol] showed an IC50 (Abl (T315I)) of 194 nM and an IC50 (Abl kinase) of 437 nM.
For `O=C(c1ccc(Nc2ncc(/C=C/c3cccc4[nH]ncc34)cn2)cc1)N1CCNCC1` [(4-(5-((E)-2-(1H-indazol-4-yl)vinyl)pyrimidin-2-ylamino)phenyl)(piperazin-1-yl)methanone hydrochloride], the IC50 (Abl (T315I)) was 231 nM and the IC50 (Abl kinase) was 20 nM.
For `Nc1nc2ccc(/C=C/c3cnc(Nc4ccc(C(=O)N5CCNCC5)cc4)nc3)cc2s1` [(4-{5-[2-(2-Amino-benzothiazol-6-yl)-vinyl]-pyrimidin-2-ylamino}-phenyl)-piperazin-1-yl-methanone], the IC50 (Abl (T315I)) was 87 nM and the IC50 (Abl kinase) was 360 nM.
Work on `O=S(=O)(c1ccc(Nc2ncc(/C=C/c3ccc(-c4c[nH]cn4)cc3)cn2)cc1)N1CCNCC1` [(5-{2-[4-(1H-Imidazol-4-yl)-phenyl]-vinyl}-pyrimidin-2-yl)-[4-(piperazine-1-sulfonyl)-phenyl]-amine] yielded an IC50 (Abl (T315I)) of 5040 nM and an IC50 (Abl kinase) of 2860 nM.
`Nc1nc2ccc(/C=C/c3cnc(Nc4ccc(S(=O)(=O)N5CCCC(O)C5)cc4)nc3)cc2s1` (centres unmarked) [(E)-1-(4-(5-(2-(2-aminobenzo[d]thiazol-6-yl)vinyl)pyrimidin-2-ylamino)phenylsulfonyl)piperidin-3-ol] showed an IC50 (Abl (T315I)) of 214 nM and an IC50 (Abl kinase) of 432 nM.
`Nc1nc2ccc(/C=C/c3cnc(Nc4ccc(S(=O)(=O)N5CCC(O)CC5)cc4)nc3)cc2s1` [(E)-1-(4-(5-(2-(2-aminobenzo[d]thiazol-6-yl)vinyl)pyrimidin-2-ylamino)phenylsulfonyl)piperidin-4-ol] showed an IC50 (Abl (T315I)) of 317 nM and an IC50 (Abl kinase) of 922 nM.
Work on `Nc1nc2ccc(/C=C/c3cnc(Nc4ccc(S(=O)(=O)N5CCCNCC5)cc4F)nc3)cc2s1` [(E)-6-(2-(2-(4-(1,4-diazepan-1-ylsulfonyl)-2-fluorophenylamino)pyrimidin-5-yl)vinyl)benzo[d]thiazol-2-amine hydrochloride] yielded an IC50 (Abl (T315I)) of 6980 nM and an IC50 (Abl kinase) of 10800 nM.
For `Cc1cc(Nc2ncc(/C=C/c3ccc4nc(N)sc4c3)cn2)ccc1S(=O)(=O)N1CCCNCC1` [(E)-6-(2-(2-(4-(1,4-diazepan-1-ylsulfonyl)-3-methylphenylamino)pyrimidin-5-yl)vinyl)benzo[d]thiazol-2-amine], the IC50 (Abl (T315I)) was 593 nM and the IC50 (Abl kinase) was 1060 nM.
Work on `Nc1nc2ccc(/C=C/c3cnc(Nc4ccc(S(=O)(=O)N5CCCNCC5)cc4)nc3)cc2s1` [(E)-6-(2-(2-(4-(1,4-diazepan-1-ylsulfonyl)phenylamino)pyrimidin-5-yl)vinyl)benzo[d]thiazol-2-amine] yielded an IC50 (Abl (T315I)) of 22 nM and an IC50 (Abl kinase) of 39 nM.
With `Nc1nc2ccc(/C=C/c3cnc(Nc4ccc(S(=O)(=O)N5CCNCC5)cc4)nc3)cc2s1` [(E)-6-(2-(2-(4-(piperazin-1-ylsulfonyl)phenylamino)pyrimidin-5-yl)vinyl)benzo[d]thiazol-2-amine] the IC50 (Abl (T315I)) was 38 nM and the IC50 (Abl kinase) was 40 nM.
`C[C@H](N)C(=O)N1CCC(S(=O)(=O)c2ccc(Nc3ncc(/C=C/c4cccc5[nH]ccc45)cn3)cc2)CC1` [(S)-1-(4-(4-(5-((E)-2-(1H-indol-4-yl)vinyl)pyrimidin-2-ylamino)phenylsulfonyl)piperidin-1-yl)-2-aminopropan-1-one hydrochloride] showed an IC50 (Abl (T315I)) of 464 nM and an IC50 (Abl kinase) of 43 nM.
Compound `O=S(=O)(NCCO)c1ccc(Nc2ncc(/C=C/c3cccc4[nH]ncc34)cn2)cc1N1CCNCC1` [N-(2-hydroxyethyl)-4-({5-[(E)-2-(1H-indazol-4-yl)vinyl]pyrimidin-2-yl}amino)-2-piperazin-1-ylbenzenesulfonamide trifluoroacetic acid salt] has an IC50 (Abl (T315I)) of 81 nM and an IC50 (Abl kinase) of 30 nM.
In the case of `O=S(=O)(c1ccc(Nc2ncc(/C=C/c3cccc4[nH]ncc34)cn2)cc1)N(CCO)C1CCNCC1` [N-(2-hydroxyethyl)-4-({5-[(E)-2-(1H-indazol-4-yl)vinyl]pyrimidin-2-yl}amino)-N-piperidin-4-ylbenzenesulfonamide], the IC50 (Abl (T315I)) is reported as 251 nM and the IC50 (Abl kinase) is reported as 77 nM.
`O=S(=O)(c1ccc(Nc2ncc(/C=C/c3cccc4[nH]ccc34)cn2)cc1)N(CCO)C1CCNCC1` [N-(2-hydroxyethyl)-4-({5-[(E)-2-(1H-indol-4-yl)vinyl]pyrimidin-2-yl}amino)-N-piperidin-4-ylbenzenesulfonamide] gave an IC50 (Abl (T315I)) of 728 nM and an IC50 (Abl kinase) of 430 nM.
Work on `O=S(=O)(NCCO)c1ccc(Nc2ncc(/C=C/c3cccc(O)c3)cn2)cc1N1CCNCC1` [N-(2-hydroxyethyl)-4-({5-[(E)-2-(3-hydroxyphenyl)vinyl]pyrimidin-2-yl}amino)-2-piperazin-1-ylbenzenesulfonamide trifluoroacetic acid salt] yielded an IC50 (Abl (T315I)) of 514 nM and an IC50 (Abl kinase) of 66 nM.
`O=S(=O)(NCCO)c1ccc(Nc2ncc(/C=C/c3ccccc3)cn2)cc1N1CCNCC1` [N-(2-hydroxyethyl)-4-({5-[(E)-2-phenylvinyl]pyrimidin-2-yl}amino)-2-piperazin-1-ylbenzenesulfonamide trifluoroacetic acid salt] showed an IC50 (Abl (T315I)) of 7340 nM and an IC50 (Abl kinase) of 406 nM.
Compound `O=C(Nc1cccc(/C=C/c2cnc(Nc3ccc(S(=O)(=O)C4CCNCC4)cc3)nc2)c1)c1cccc(C(F)(F)F)c1` [N-(3-((E)-2-(2-(4-(piperidin-4-ylsulfonyl)phenylamino)pyrimidin-5-yl)vinyl)phenyl)-3-(trifluoromethyl)benzamide Hydrochloride] has an IC50 (Abl (T315I)) of 1280 nM and an IC50 (Abl kinase) of 17 nM.
For `O=C(Nc1cccc(/C=C/c2cnc(Nc3cccnc3)nc2)c1)c1cccc(C(F)(F)F)c1` [N-(3-{2-[2-(Pyridin-3-ylamino)-pyrimidin-5-yl]-vinyl}-phenyl)-3-trifluoromethyl-benzamide], the IC50 (Abl (T315I)) was > 10000 nM and the IC50 (Abl kinase) was 148 nM.
For `CN1CCC(S(=O)(=O)c2ccc(Nc3ncc(/C=C/c4cccc5[nH]ncc45)cn3)cc2)CC1` [N-(4-(1-methylpiperidin-4-ylsulfonyl)phenyl)-5-((E)-2-(1H-indazol-4-yl)vinyl)pyrimidin-2-amine], the IC50 (Abl (T315I)) was 2040 nM and the IC50 (Abl kinase) was 32 nM.
`C=Cc1cnc(Nc2ccc(S(=O)(=O)C3CCN(C)CC3)cc2)nc1` [N-(4-(1-methylpiperidin-4-ylsulfonyl)phenyl)-5-vinylpyrimidin-2-amine] gave an IC50 (Abl (T315I)) of 1570 nM and an IC50 (Abl kinase) of 4250 nM.
In the case of `O=C(Nc1ccc(/C=C/c2cnc(Nc3ccc(S(=O)(=O)C4CCNCC4)cc3)nc2)cc1)c1cccc(C(F)(F)F)c1` [N-(4-((E)-2-(2-(4-(piperidin-4-ylsulfonyl)phenylamino)pyrimidin-5-yl)vinyl)phenyl)-3-(trifluoromethyl)benzamide Hydrochloride], the IC50 (Abl (T315I)) is reported as 1010 nM and the IC50 (Abl kinase) is reported as 506 nM.
`C=Cc1cnc(Nc2ccc(S(=O)(=O)C3CCNCC3)cc2)nc1` [N-(4-(piperidin-4-ylsulfonyl)phenyl)-5-vinylpyrimidin-2-amine trifluoroacetate] was tested, and the IC50 (Abl (T315I)) was 368 nM and the IC50 (Abl kinase) was 1390 nM.
